Data as given in US20090036488A1, “RECURRENCE PREVENTIVE THERAPEUTIC AGENT FOR PSYCHOSTIMULANT-INDUCED PSYCHOSIS AND SCHIZOPHRENIA” (Tokyo Medical and Dental University, priority 2005, published 2009).

Columns and labels:
[1] = system: MAP reverse tolerance model; experiment: Test to confirm effects of administration with fluoxetine or paroxetine in the MAP reverse tolerance model; assay type: in vivo, mice
Procedure: Regarding formation of reverse tolerance, 1 mg/kg/day MAP was administered to eight-week-old male ddy mice for ten days as a pretreatment in a similar way to the abovementioned method. After a 11-day washout period, 10 mg/kg/day fluoxetine was then administered. Fluoxetine was prepared by dissolving in saline and administered by subcutaneous injection. In addition, after 9 to 11-day washout period, 0.24 mg/kg MAP was administered, the locomotor hyperactivity of the mice was measured and evaluated one hour later.
Regarding formation of reverse tolerance, MAP 1 mg/kg/day […] was administered to eight-week-old male ddy mice for ten days as a pretreatment in a similar way to the abovementioned method. After an 11-day washout period, 8 mg/kg/day paroxetine was then administered. Paroxetine was prepared by dissolving in saline and administered by subcutaneous injection. In addition, after 9 to 11-day washout period, 0.24 mg/kg MAP was administered, and the locomotor hyperactivity of the mice was measured and evaluated one hour later.

male ddy mice = experiment: Test for formation/maintenance of reverse tolerance; assay type: in vivo
Procedure: Methamphetamine (hereinafter, may be also referred to as “MAP”) which is a psychostimulant was administered to an animal, and then formation/maintenance of reverse tolerance was verified. In this test, eight-week-old male ddy mice were used. […] First, mice were divided into two groups, and then 1 mg/kg/day MAP and saline were respectively administered to each group for ten days as pretreatment. The agent was prepared by dissolving in saline and administered by subcutaneous injection. Hereinafter, the group to which MAP was administered is called “MAP administrated group”, and the group to which saline was administered is called “SAL administrated group”. MAP of 1 mg/kg used here corresponds an amount to result in increase in locomotor hyperactivity when it is administered to mice. In addition, a first administration of MAP was conducted after a 10-day washout period in order to confirm if this phenomenon was maintained. The dosage, 0.24 mg/kg, was less than that of the pretreatment, which is reportedly a quantity not causing abnormal behavior to appear in normal mice received the administration. Then, following a 29-day washout period, a second administration was conducted. Upon the administration on the day 10 and the day 29, MAP was also administered to the SAL administrated group in the same amount as administered to the MAP administrated group.
During the pretreatment, activity quantity in an hour was measured after MAP or saline administration on Days 1, 3, 7, and 10. […] In the case of a typical drug administration, tolerance is formed to gradually decrease influences of the administered drug.
In addition, comparing the MAP administrated group with the SAL administrated group, in both administrations on day 10 and day 29, it was clear that the activity quantity of the MAP administrated group was higher, so that it was confirmed that influences of the drug were maintained even after a longer than one-month washout period.

With `Fc1ccc([C@@H]2CCNC[C@H]2COc2ccc3c(c2)OCO3)cc1` [PLX, paroxetine] the “locomotor hyperactivity vs group without PLX in the treatment phase (Example 2 vs Comparative Example 14)” value ([1]; MAP 1 mg/kg/day for 10 days, 11-day washout, paroxetine 8 mg/kg/day s.c., 9 to 11-day washout, 0.24 mg/kg MAP, measured one hour later) was “locomotor hyperactivity decreased”, the “reverse tolerance, vs group in which reverse tolerance was not formed (Example 2 vs Comparative Example 10)” value ([1]; paroxetine 8 mg/kg/day s.c. after MAP pretreatment, 0.24 mg/kg MAP challenge) was “reverse tolerance disappeared” and the “effect of PLX itself on activity quantity (Comparative Example 8 vs 9, 10 vs 11)” value ([1]; saline pretreatment, reverse tolerance not formed, paroxetine 8 mg/kg/day s.c.) was “did not decrease activity quantity”.

`CN[C@@H](C)Cc1ccccc1` [MAP, Methamphetamine] was tested, and the “activity quantity after MAP re-administration, MAP administrated group vs SAL administrated group” value (male ddy mice; 0.24 mg/kg MAP on day 10 and day 29 after washout) was “higher”, the “formation of reverse tolerance” value (male ddy mice; MAP 1 mg/kg/day s.c. for ten days) was “reverse tolerance was formed” and the “activity quantity in an hour (locomotor hyperactivities per hour) during pretreatment” value (male ddy mice; MAP 1 mg/kg/day s.c. for ten days, measured on Days 1, 3, 7 and 10) was “increased in a time dependent manner”.

For `CNCCC(Oc1ccc(C(F)(F)F)cc1)c1ccccc1` (stereo not drawn) [FLX, fluoxetine], the “locomotor hyperactivity vs group without FLX in the treatment phase (Example 1 vs Comparative Example 7)” value ([1]; MAP 1 mg/kg/day for 10 days, 11-day washout, fluoxetine 10 mg/kg/day s.c., 9 to 11-day washout, 0.24 mg/kg MAP, measured one hour later) was “locomotor hyperactivity decreased”, the “reverse tolerance, vs group in which reverse tolerance was not formed (Example 1 vs Comparative Example 3)” value ([1]; fluoxetine 10 mg/kg/day s.c. after MAP pretreatment, 0.24 mg/kg MAP challenge) was “reverse tolerance disappeared” and the “effect of FLX itself on activity quantity (Comparative Example 1 vs 2, 3 vs 4)” value ([1]; saline pretreatment, reverse tolerance not formed, fluoxetine 10 mg/kg/day s.c.) was “did not decrease the activity quantity”.
